Results from patent US20120107240A1, “Probes and methods of melanoma imaging” (The Board of Trustees of the Leland Stanford Junior …, priority 2010, published 2012).

How the values were obtained:
B16F10 tumor = test: microPET quantification (ROI analysis) of tumors and other organs in B16F10 tumor-bearing mice; format: in vivo, C57BL/6 mice; conditions: for tumor uptake: tail vein, B16F10 tumor
Description: B16F10 was cultured in Dulbecco's modified Eagle high-glucose medium (Gibco Life Sciences) supplemented with 10% fetal bovine serum with penicillin and streptomycin. The cells were regularly maintained in a 37° C., 5% CO2 humidified incubator. The subcutaneous B16F10 tumor models were prepared with 5- to 6-wk-old male C57BL/6 mice (Charles River). Static microPET scans were performed on the B16F10 tumor-bearing mice and representative decay-corrected coronal images at 0.5, 1, and 2 h after tail vein injection of ^18F-P3BZA (3-^18F-fluoropicolinamide) probe and ^18F-P2BZA (2-^18F-fluoronicotinamide) probe are shown in FIG. 2 (n=5 for each group), from which the B16F10 tumors were clearly visualized with good tumor-to-background contrast for both tracers (the white arrows indicate the tumors).
The microPET quantification analysis of tumors and other organs was obtained from the ROI analysis and the results at 0.5, 1, and 2 h p.i. are shown in FIG. 3. The tumor uptake of 18F-F3BZA probe was 11.8±2.2, 13.2±2.4, and 14.5±3.2% ID/g at 0.5, 1, and 2 h p.i., respectively. For ^18F-P2BZA probe, the tumor uptake was 5.5±1.6, 4.6±2.4, 5.5±2.6% ID/g at 0.5, 1, and 2 h p.i., respectively. […] The unspecific uptake by muscle is very low, 0.8±0.4, 1.0±0.5, 0.6±0.3% ID/g at 0.5, 1, and 2 h p.i.), which is the explanation of the high contrast images shown in FIG. 2.
(§1) The ^18F-fluoropicolinamides were prepared by radiofluorination reactions using no-carrier-added ^18F-fluoride and evaluated in vivo by biodistribution studies and micro-positron emission tomography (microPET) imaging in C57BL/6 mice bearing B16F10 murine melanoma tumors.

[1] = test system: B16F10 murine melanoma tumors; test: Noninvasive microPET and direct tissue sampling (biodistribution) in subcutaneous B16F10 melanoma xenografts; format: in vivo, C57BL/6 mice
Description: as §1
The total synthesis time was less than 1 hour. The radiochemical purity of the ^18F-labeled probes was more than 98% and the specific activity was 100-150 GBq/μmol.

| Substance | tumor uptake (B16F10 tumor; 0.5 h post injection) [% ID/g] | tumor uptake (B16F10 tumor; 1 h post injection) [% ID/g] | bone uptake (B16F10 tumor; 1 h postinjection) [% ID/g] | tumor uptake (B16F10 tumor; 2 h post injection) [% ID/g] | bone uptake (B16F10 tumor; 2 h postinjection) [% ID/g] | defluorination in the murine model (B16F10 tumor; evidenced by bone uptake) | in vivo stability ([1]; evidenced by bone uptake) | bone uptake in biodistribution studies ([1]; mouse, in vivo) | Kidneys uptake (B16F10 tumor; 0.5 h p.i.) [% ID/g] | Liver uptake (B16F10 tumor; 0.5 h p.i.) [% ID/g] | unspecific uptake by muscle (B16F10 tumor; 0.5 h p.i.) [% ID/g] | Kidneys uptake (B16F10 tumor; 1 h p.i.) [% ID/g] | Liver uptake (B16F10 tumor; 1 h p.i.) [% ID/g] | unspecific uptake by muscle (B16F10 tumor; 1 h p.i.) [% ID/g] | Kidneys uptake (B16F10 tumor; 2 h p.i.) [% ID/g] | Liver uptake (B16F10 tumor; 2 h p.i.) [% ID/g] | unspecific uptake by muscle (B16F10 tumor; 2 h p.i.) [% ID/g] | tumor uptake (B16F10 tumor; 2 h post injection, listed as 18F-F3BZA) [% ID/g] | tumor to muscle ratio (B16F10 tumor; at 2 h) | clearance from the blood (B16F10 tumor; mouse, in vivo) |
| --- | --- | --- | --- | --- | --- | --- | --- | --- | --- | --- | --- | --- | --- | --- | --- | --- | --- | --- | --- | --- |
| 4-^18F-fluoropicolinamide [^18F-P4BZA] | 10.7±1.3 | 10.5±1.8 | 11.3±2.9 | 8.7±2.3 | 10.3±3.6 | very high |  |  |  |  |  |  |  |  |  |  |  |  |  |  |
| 2-^18F-fluoronicotinamide [^18F-P2BZA, reference compound] | 5.5±1.6 | 4.6±2.4 |  | 5.5±2.6 |  |  |  |  |  |  |  |  |  |  |  |  |  |  |  |  |
| 3-^18F-fluoropicolinamide [^18F-P3BZA] | 11.8±2.2 | 13.2±2.4 |  | 14.6±3.2 |  |  | good | low | 6.9±1.1 | 5.1±0.8 | 0.8±0.4 | 4.7±0.8 | 4.3±1.1 | 1.0±0.5 | 3.0±0.6 | 3.0±0.6 | 0.6±0.3 | 14.5±3.2 | 25.3 | cleared rapidly |
